In ChEMBL document CHEMBL4819019, “Design, synthesis, antibacterial activity and toxicity of novel quaternary ammonium compounds based on pyridoxine and fatty acids” (Eur J Med Chem, 2021):

How the values were obtained:
[1] = tested on: Staphylococcus ureilyticus; test: Antibacterial activity against clinical isolate Staphylococcus ureilyticus 1972 measured after 24 hrs by broth microdilution method; type: functional
[2] = tested on: Staphylococcus aureus; test: Antibacterial activity against Staphylococcus aureus ATCC 29213 measured after 24 hrs by broth microdilution method; type: functional
[3] = tested on: Bacillus subtilis; test: Antibacterial activity against Bacillus subtilis 168 measured after 24 hrs by broth microdilution method; type: functional
[4] = tested on: Micrococcus luteus; test: Antibacterial activity against Micrococcus luteus clinical isolate measured after 24 hrs by broth microdilution method; type: functional
[5] = tested on: Escherichia coli; test: Antibacterial activity against Escherichia coli MG 1655 measured after 24 hrs by broth microdilution method; type: functional
[6] = tested on: Pseudomonas aeruginosa; test: Antibacterial activity against Pseudomonas aeruginosa ATCC 27853 measured after 24 hrs by broth microdilution method; type: functional
[7] = Cytotoxicity against human HEK293 cells assessed as cell viability measured after 72 hrs by MTT assay; type: cell-based
[8] = Cytotoxicity against human mesenchymal stem cells assessed as cell viability measured after 72 hrs by MTT assay; type: cell-based
[9] = Cytotoxicity against human skin fibroblasts assessed as cell viability measured after 72 hrs by MTT assay; type: cell-based, Fibroblast
[10] = Genotoxicity in Salmonella typhimurium TA1535/pSK1002 assessed as DNA-damage activity by measuring beta-galactosidase activity at 750 ug/ml measured by SOS-chromotest relative to solvent control; type: toxicity; conditions: salmonella enterica subsp. enterica serovar typhimurium; dose 750 µg/ml
[11] = Genotoxicity in Salmonella typhimurium TA1535/pSK1002 assessed as DNA-damage activity by measuring beta-galactosidase activity at 150 ug/ml measured by SOS-chromotest relative to solvent control; type: toxicity; conditions: salmonella enterica subsp. enterica serovar typhimurium; dose 150 µg/ml
[12] = Genotoxicity in Salmonella typhimurium TA1535/pSK1002 assessed as DNA-damage activity by measuring beta-galactosidase activity at 75 ug/ml measured by SOS-chromotest relative to solvent control; type: toxicity; conditions: salmonella enterica subsp. enterica serovar typhimurium; dose 75 µg/ml
[13] = Genotoxicity in Salmonella typhimurium TA1535/pSK1002 assessed as DNA-damage activity by measuring beta-galactosidase activity at 15 ug/ml measured by SOS-chromotest relative to solvent control; type: toxicity; conditions: salmonella enterica subsp. enterica serovar typhimurium; dose 15 µg/ml
[14] = Genotoxicity in Salmonella typhimurium TA1535/pSK1002 assessed as DNA-damage activity by measuring beta-galactosidase activity at 7.5 ug/ml measured by SOS-chromotest relative to solvent control; type: toxicity; conditions: salmonella enterica subsp. enterica serovar typhimurium; dose 7.5 µg/ml
[15] = Genotoxicity in Salmonella typhimurium TA1535 assessed as number of revertant by Ames spot test relative to solvent control; type: toxicity; conditions: salmonella enterica subsp. enterica serovar typhimurium
[16] = Genotoxicity in Salmonella typhimurium TA1537 assessed as number of revertant by Ames spot test relative to solvent control; type: toxicity; conditions: salmonella enterica subsp. enterica serovar typhimurium
[17] = Genotoxicity in Salmonella typhimurium TA98 assessed as number of revertant by Ames spot test relative to solvent control; type: toxicity; conditions: salmonella enterica subsp. enterica serovar typhimurium
[18] = Genotoxicity in Salmonella typhimurium TA100 assessed as number of revertant by Ames spot test relative to solvent control; type: toxicity; conditions: salmonella enterica subsp. enterica serovar typhimurium
[19] = tested on: Staphylococcus aureus; test: Antibacterial activity against clinical isolate methicillin-resistant Staphylococcus aureus 713 measured after 24 hrs by broth microdilution method; type: functional
[20] = tested on: Staphylococcus aureus; test: Antibacterial activity against clinical isolate methicillin-resistant Staphylococcus aureus 983 measured after 24 hrs by broth microdilution method; type: functional
[21] = tested on: Staphylococcus aureus; test: Antibacterial activity against clinical isolate methicillin-resistant Staphylococcus aureus 1053 measured after 24 hrs by broth microdilution method; type: functional
[22] = tested on: Staphylococcus intermedius; test: Antibacterial activity against clinical isolate methicillin-resistant Staphylococcus intermedius 1061 measured after 24 hrs by broth microdilution method; type: functional
[23] = tested on: Staphylococcus aureus; test: Antibacterial activity against clinical isolate methicillin-resistant Staphylococcus aureus 1065 measured after 24 hrs by broth microdilution method; type: functional
[24] = tested on: Staphylococcus aureus; test: Antibacterial activity against clinical isolate methicillin-resistant Staphylococcus aureus 1131 measured after 24 hrs by broth microdilution method; type: functional
[25] = tested on: Staphylococcus intermedius; test: Antibacterial activity against clinical isolate methicillin-resistant Staphylococcus intermedius 1143 measured after 24 hrs by broth microdilution method; type: functional
[26] = tested on: Staphylococcus aureus; test: Antibacterial activity against clinical isolate Staphylococcus aureus 25 measured after 24 hrs by broth microdilution method; type: functional
[27] = tested on: Enterococcus faecalis; test: Antibacterial activity against clinical isolate Enterococcus faecalis 23 measured after 24 hrs by broth microdilution method; type: functional
[28] = tested on: Enterococcus faecalis; test: Antibacterial activity against clinical isolate Enterococcus faecalis 3063 measured after 24 hrs by broth microdilution method; type: functional
[29] = tested on: Acinetobacter sp.; test: Antibacterial activity against clinical isolate Acinetobacter sp. 3 measured after 24 hrs by broth microdilution method; type: functional
[30] = tested on: Pseudomonas sp.; test: Antibacterial activity against clinical isolate Pseudomonas sp. 5 measured after 24 hrs by broth microdilution method; type: functional
[31] = tested on: Klebsiella sp.; test: Antibacterial activity against clinical isolate Klebsiella sp. 11 measured after 24 hrs by broth microdilution method; type: functional
[32] = tested on: Proteus sp.; test: Antibacterial activity against clinical isolate Proteus sp. 17 measured after 24 hrs by broth microdilution method; type: functional; conditions: Proteus sp. (in: enterobacteria)
[33] = tested on: Escherichia coli; test: Antibacterial activity against clinical isolate Escherichia coli 718 measured after 24 hrs by broth microdilution method; type: functional
[34] = tested on: Moraxella; test: Antibacterial activity against clinical isolate Moraxella 765 measured after 24 hrs by broth microdilution method; type: functional
[35] = tested on: Klebsiella pneumoniae; test: Antibacterial activity against clinical isolate Klebsiella pneumoniae 1813 measured after 24 hrs by broth microdilution method; type: functional
[36] = tested on: Pseudomonas aeruginosa; test: Antibacterial activity against clinical isolate Pseudomonas aeruginosa 1945 measured after 24 hrs by broth microdilution method; type: functional
[37] = tested on: Serratia marcescens; test: Antibacterial activity against clinical isolate Serratia marcescens 1966 measured after 24 hrs by broth microdilution method; type: functional
[38] = Lipophilicity, logP of the compound; type: physicochemical; conditions: octanol/water

SMILES | MIC [1] | MIC [2] | MIC [3] | MIC [4] | MIC [5] | MIC [6] | CC50 at 72 h [7] | CC50 at 72 h [8] | CC50 at 72 h [9] | Ratio [10] | Ratio [11] | Ratio [12] | Ratio [13] | Ratio [14] | Ratio [15] | Ratio [16] | Ratio [17] | Ratio [18] | MIC [19] | logP [38] | also measured
CCCCCCCCCCCCCC(=O)NCC[N+](C)(C)Cc1cnc(C)c2c1COC(C)(C)O2.[Cl-] | 64 mg/L | 2 mg/L | 4 mg/L | 4 mg/L | 8 mg/L | 2 mg/L | 1.18 mg/L | 2.16 mg/L | 3.03 mg/L | 0.4 | 0.5 | 0.7 | 1.5 | 1.5 | 0.8 | 0.06 | 1.7 | 1.3 | 4 mg/L | 1.41 | MIC [20]: 64 mg/L; MIC [21]: 4 mg/L; MIC [22]: 4 mg/L; MIC [23]: 8 mg/L; MIC [24]: 16 mg/L; MIC [25]: 4 mg/L; MIC [26]: 4 mg/L; MIC [27]: 2 mg/L; MIC [28]: 2 mg/L; MIC [29]: 64 mg/L; MIC [30]: 64 mg/L; MIC [31]: 64 mg/L; MIC [32]: > 64 mg/L; MIC [33]: 32 mg/L; MIC [34]: 64 mg/L; MIC [35]: 4 mg/L; MIC [36]: 64 mg/L; MIC [37]: 64 mg/L
Nc1ccc([N+](=O)[O-])cc1N |  |  |  |  |  |  |  |  |  |  |  |  |  |  |  | 3.7 | 4.2 |  |  |  | 
COS(C)(=O)=O [METHANESULFONIC ACID METHYL ESTER] |  |  |  |  |  |  |  |  |  |  |  |  |  |  | 30 |  |  | 2.7 |  |  | 
CCCCCCCCCCCC(=O)OCCC[N+](C)(C)Cc1cnc(C)c2c1COC(CCC)O2.[Cl-] (stereo not drawn) | > 64 mg/L | 2 mg/L | 2 mg/L | 1 mg/L | 4 mg/L | 32 mg/L | 2.15 mg/L | 2.42 mg/L | 4.32 mg/L | 0.5 | 1.1 | 1.5 | 1.4 | 1.4 | 0.5 | 0.03 | 1.8 | 2.4 | 16 mg/L | 2.14 | MIC [20]: 32 mg/L; MIC [21]: 8 mg/L; MIC [22]: 16 mg/L; MIC [23]: 16 mg/L; MIC [24]: 16 mg/L; MIC [25]: 16 mg/L; MIC [26]: 8 mg/L; MIC [27]: 4 mg/L; MIC [28]: 4 mg/L; MIC [29]: 64 mg/L; MIC [30]: 32 mg/L; MIC [31]: 32 mg/L; MIC [32]: > 64 mg/L; MIC [33]: 8 mg/L; MIC [34]: 64 mg/L; MIC [35]: > 64 mg/L; MIC [36]: > 64 mg/L; MIC [37]: > 64 mg/L
CCCCCCCCCCCCCC(=O)NCCC[N+](C)(C)Cc1cnc(C)c2c1COC(C)(C)O2.[Cl-] |  | 0.5 mg/L | 2 mg/L | 1 mg/L | 8 mg/L | 8 mg/L | 1.61 mg/L | 2.21 mg/L | 3.14 mg/L | 1 | 0.5 | 0.7 | 1.5 | 1.5 | 0.4 | 0.03 | 2.6 | 2.5 |  | 1.47 | 
CCCCCCCC[N+](C)(C)Cc1nc(C)c2c(c1CO)COC(C)(C)O2.[Cl-] |  | 64 mg/L | 64 mg/L | 64 mg/L | 64 mg/L | > 64 mg/L |  |  |  |  |  |  |  |  |  |  |  |  |  | -0.78 | 
CCCCCCCCCCCCCC(=O)NCCC[N+](C)(C)Cc1nc(C)c2c(c1CO)COC(CCC)O2.[Cl-] (stereo not drawn) |  | 2 mg/L | 1 mg/L | 1 mg/L | 64 mg/L | > 64 mg/L |  |  |  |  |  |  |  |  |  |  |  |  |  | 1.62 | 
CCCCCCCCCCCCCCCCCC(=O)NCCC[N+](C)(C)Cc1cnc(C)c2c1COC(C)(C)O2.[Cl-] | > 64 mg/L | 4 mg/L | 8 mg/L | 4 mg/L | > 64 mg/L | 8 mg/L |  |  |  |  |  |  |  |  |  |  |  |  | 16 mg/L | 3.25 | MIC [20]: 64 mg/L; MIC [21]: 8 mg/L; MIC [22]: 8 mg/L; MIC [23]: 8 mg/L; MIC [24]: 16 mg/L; MIC [25]: 16 mg/L; MIC [26]: 8 mg/L; MIC [27]: 4 mg/L; MIC [28]: 4 mg/L; MIC [29]: 64 mg/L; MIC [30]: 64 mg/L; MIC [31]: 64 mg/L; MIC [32]: > 64 mg/L; MIC [33]: > 64 mg/L; MIC [34]: > 64 mg/L; MIC [35]: > 64 mg/L; MIC [36]: > 64 mg/L; MIC [37]: > 64 mg/L
CCCCCCCCCCCCCC(=O)OCCC[N+](C)(C)Cc1cnc(C)c2c1COC(C)(C)O2.[Cl-] |  | 2 mg/L | 2 mg/L | 2 mg/L | 16 mg/L | 16 mg/L |  |  |  |  |  |  |  |  |  |  |  |  |  | 2.2 | 
CCCCCCCCCC(C)C1OCc2c(C[N+](C)(C)CCCNC(=O)CCCCC)cnc(C)c2O1.[Cl-] (stereo not drawn) |  | > 64 mg/L | > 64 mg/L | > 64 mg/L | > 64 mg/L | > 64 mg/L |  |  |  |  |  |  |  |  |  |  |  |  |  | 2.34 | 
